These results are taken from patent US20250144094A1 (Erasca, Inc., priority 2021, published 2025).

The target of the assay is Recombinant human ULK1 (1-649) (Homo sapiens (Human), UniProt O75385). Description: ULK1 ADP Glo kinase activity assay, new method (ULKtide peptide substrate). The note with it: 25° C., 40 minutes, read-out: ULK1 biochemical IC50. In short, it runs like this: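 GST-tagged human ULK1 (1-649) from Sf9 cells was reacted with ULKtide peptide and ATP for 40 min at 25 °C across 12-point compound dilutions from 10 μM. ADP formed was quantified by ADP-Glo luminescence; IC50 came from four-parameter fits relative to DMSO controls.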
On the technique in general: In ADP-Glo the light output rises with the ADP produced.

Recombinant human ULK1 (1-649), sequence (O75385 1-649): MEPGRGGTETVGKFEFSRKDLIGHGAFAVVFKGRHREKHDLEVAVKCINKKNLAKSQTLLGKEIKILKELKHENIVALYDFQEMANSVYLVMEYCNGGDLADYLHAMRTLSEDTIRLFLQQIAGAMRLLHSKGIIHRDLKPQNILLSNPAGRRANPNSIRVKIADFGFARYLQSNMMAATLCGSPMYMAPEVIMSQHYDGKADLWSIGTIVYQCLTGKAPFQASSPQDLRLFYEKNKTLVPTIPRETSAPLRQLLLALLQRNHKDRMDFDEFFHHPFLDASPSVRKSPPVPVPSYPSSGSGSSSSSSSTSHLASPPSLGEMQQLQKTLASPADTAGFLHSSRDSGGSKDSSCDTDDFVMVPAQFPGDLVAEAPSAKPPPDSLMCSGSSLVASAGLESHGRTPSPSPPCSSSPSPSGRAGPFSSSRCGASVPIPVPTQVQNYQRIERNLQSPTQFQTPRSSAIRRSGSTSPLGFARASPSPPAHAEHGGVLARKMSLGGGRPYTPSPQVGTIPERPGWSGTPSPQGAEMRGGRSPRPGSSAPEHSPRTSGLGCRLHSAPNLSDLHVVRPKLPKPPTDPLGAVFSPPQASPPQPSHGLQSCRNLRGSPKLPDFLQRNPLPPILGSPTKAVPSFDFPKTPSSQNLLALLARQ

Regarding `CN1CCS(=O)(=O)c2cc(-c3nc(Nc4cc(N5CCNCC5)ccc4Cl)ncc3C(F)(F)F)sc2C1=O` [Example 189, 7-(2-((2-chloro-5-(piperazin-1-yl)phenyl)amino)-5-(trifluoromethyl)pyrimidin-4-yl)-4-methyl-3,4-dihydrothieno[2,3-f][1,4]thiazepin-5(2H)-one 1,1-dioxide], the IC50 is 50 to 100 nM.

As to `CCN1CCc2cc(Nc3ncc(C(F)(F)F)c(-c4cc5c(s4)C(=O)N(C)CCS5(=O)=O)n3)c(SC)cc2C1` [Example 188, 7-(2-((2-ethyl-7-(methylthio)-1,2,3,4-tetrahydroisoquinolin-6-yl)amino)-5-(trifluoromethyl)pyrimidin-4-yl)-4-methyl-3,4-dihydrothieno[2,3-f][1,4]thiazepin-5(2H)-one 1,1-dioxide], the 50% inhibitory concentration (IC50) was at most 5 nM.

Take `CNC(=O)[C@@H]1CN(c2ccc(Nc3ncc(C(F)(F)F)c(-c4cc5c(s4)C(=O)N(C4COC4)CCS5(=O)=O)n3)c(C3CC3)c2)CCN1` [Example 373, (S)-4-(3-cyclopropyl-4-((4-(4-(oxetan-3-yl)-1,1-dioxido-5-oxo-2,3,4,5-tetrahydrothieno[2,3-f][1,4]thiazepin-7-yl)-5-(trifluoromethyl)pyrimidin-2-yl)amino)phenyl)-N-methylpiperazine-2-carboxamide]: the IC50 was at most 5 nM.

For `O=C1c2sc(-c3nc(Nc4cc5c(cc4Cl)CCNC5)ncc3C(F)(F)F)cc2S(=O)(=O)CCN1C1COC1` [Example 230, 7-(2-((6-chloro-1,2,3,4-tetrahydroisoquinolin-7-yl)amino)-5-(trifluoromethyl)pyrimidin-4-yl)-4-(oxetan-3-yl)-3,4-dihydrothieno[2,3-f][1,4]thiazepin-5(2H)-one 1,1-dioxide], the concentration for half-maximal inhibition (IC50) was at most 5 nM.

In the case of `O=C1c2sc(-c3nc(Nc4cc5c(cc4C4CC4)CCNC5)ncc3C(F)(F)F)cc2S(=O)(=O)CCN1C1CCC1` [Example 225, 4-cyclobutyl-7-(2-((6-cyclopropyl-1,2,3,4-tetrahydroisoquinolin-7-yl)amino)-5-(trifluoromethyl)pyrimidin-4-yl)-3,4-dihydrothieno[2,3-f][1,4]thiazepin-5(2H)-one 1,1-dioxide], the IC50 is at most 5 nM.

For the compound `Cc1c(Nc2ncc(C(F)(F)F)c(-c3cc4c(s3)C(=O)NCCS4(=O)=O)n2)cnn1C1CCNCC1` [Example 178, 7-(2-((5-methyl-1-(piperidin-4-yl)-1H-pyrazol-4-yl)amino)-5-(trifluoromethyl)pyrimidin-4-yl)-3,4-dihydrothieno[2,3-f][1,4]thiazepin-5(2H)-one 1,1-dioxide], the IC50 is over 100 nM.

`CN1CCS(=O)(=O)c2cc(-c3nc(Nc4cc5c(cc4C4CC4)CNCC5)ncc3C(F)(F)F)sc2C1=O` [Example 173, 7-(2-((7-cyclopropyl-1,2,3,4-tetrahydroisoquinolin-6-yl)amino)-5-(trifluoromethyl)pyrimidin-4-yl)-4-methyl-3,4-dihydrothieno[2,3-f][1,4]thiazepin-5(2H)-one 1,1-dioxide]: the IC50 is at most 5 nM.

As for `CSc1cc2c(cc1Nc1ncc(C(F)(F)F)c(-c3cc4c(s3)C(=O)N(C3CC3)CCS4(=O)=O)n1)CCNC2` [Example 247, 4-cyclopropyl-7-(2-((7-(methylthio)-1,2,3,4-tetrahydroisoquinolin-6-yl)amino)-5-(trifluoromethyl)pyrimidin-4-yl)-3,4-dihydrothieno[2,3-f][1,4]thiazepin-5(2H)-one 1,1-dioxide], the IC50 is at most 5 nM.

`CCN1CCS(=O)(=O)c2cc(-c3nc(Nc4cc5c(cc4Cl)CCNC5)ncc3C(F)(F)F)sc2C1=O` [Example 204, 7-(2-((6-chloro-1,2,3,4-tetrahydroisoquinolin-7-yl)amino)-5-(trifluoromethyl)pyrimidin-4-yl)-4-ethyl-3,4-dihydrothieno[2,3-f][1,4]thiazepin-5(2H)-one 1,1-dioxide]: the IC50 was at most 5 nM.

As usually defined, the IC50 is the point on the concentration scale where inhibition reaches its midpoint.
